{
  "source": "ChEMBL document CHEMBL1135318",
  "about": "(Bioorg Med Chem Lett, 2002)",
  "key": {"[1]": {"target": "T1, Muscarinic acetylcholine receptor M2 (Homo sapiens) (UniProt P08172)", "T1 sequence (whole entry)": "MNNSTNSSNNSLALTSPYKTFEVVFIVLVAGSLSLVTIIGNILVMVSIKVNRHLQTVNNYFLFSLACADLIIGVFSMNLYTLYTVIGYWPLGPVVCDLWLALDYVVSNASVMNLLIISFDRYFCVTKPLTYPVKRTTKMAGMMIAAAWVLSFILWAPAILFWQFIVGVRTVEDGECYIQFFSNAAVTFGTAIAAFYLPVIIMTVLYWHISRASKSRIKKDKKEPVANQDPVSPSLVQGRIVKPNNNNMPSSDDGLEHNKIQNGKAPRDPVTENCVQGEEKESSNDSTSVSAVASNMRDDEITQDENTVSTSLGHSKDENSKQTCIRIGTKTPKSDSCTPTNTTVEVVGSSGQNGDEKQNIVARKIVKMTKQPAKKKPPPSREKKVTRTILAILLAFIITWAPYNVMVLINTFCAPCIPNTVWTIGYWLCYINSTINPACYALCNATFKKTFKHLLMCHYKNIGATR", "assay": "Displacement of [3H]N-methylscopolamine from membrane preparation from CHO-K1 cells for Muscarinic acetylcholine receptor M2", "format": "cell membranes", "settings": "concentration not given here"}, "[2]": {"target": "T2, Muscarinic acetylcholine receptor M3 (Homo sapiens, UniProt P20309)", "assay": "Displacement of [3H]N-methylscopolamine from membrane preparation from CHO-K1 cells for Muscarinic acetylcholine receptor M3", "format": "cell membranes", "settings": "concentration not given here"}, "[3]": {"target": "T1, Muscarinic acetylcholine receptor M2 (Homo sapiens)", "assay": "Displacement of [3H]N-methylscopolamine from membrane preparation from CHO-K1 cells for Muscarinic acetylcholine receptor M2; value given as 20-50%", "format": "cell membranes", "settings": "concentration not given here"}, "[4]": {"target": "T2, Muscarinic acetylcholine receptor M3", "assay": "Displacement of [3H]N-methylscopolamine from membrane preparation from CHO-K1 cells for Muscarinic acetylcholine receptor M3; value given as 20-50%", "format": "cell membranes", "settings": "concentration not given here"}, "[5]": {"target": "T3, Muscarinic acetylcholine receptor M2 (Homo sapiens, UniProt P08172)", "T3 sequence (P08172 whole entry)": "T1 sequence (whole entry)", "assay": "In vitro affinity for muscarinic M2 receptor."}, "[6]": {"target": "T2, Muscarinic acetylcholine receptor M3", "assay": "In vitro affinity for muscarinic M3 receptor."}},
  "data": [
    {"smiles": "O=C(c1cccs1)N(C1CCC1)C1CCN(Cc2ccccc2)CC1", "values": [
      {"measurement": "inhibition", "setting": "[1]", "value": "< 20", "unit": "%"},
      {"measurement": "inhibition", "setting": "[2]", "value": "< 20", "unit": "%"}
    ]},
    {"smiles": "O=C(c1ccccc1)N(C1CCC1)C1CCN(Cc2ccccc2)CC1", "values": [
      {"measurement": "inhibition", "setting": "[3]", "value": 20, "unit": "%"},
      {"measurement": "inhibition", "setting": "[4]", "value": 20, "unit": "%"}
    ]},
    {"smiles": "O=C(c1ccccc1)N(Cc1ccccc1)C1CCN(Cc2ccccc2)CC1", "values": [
      {"measurement": "Ki", "setting": "[5]", "value": 0.631, "unit": "µM"},
      {"measurement": "Ki", "setting": "[6]", "value": 0.158, "unit": "µM"}
    ]}
  ]
}
